16 molecules from US10112937B2, “P2X7 modulators and methods of use” (Janssen Pharmaceutica NV, priority 2013, dated 2018) can be followed below.

Assay type in all cases: cell-based
Test [1] has as its target T1, human P2X7 (Homo sapiens (Human), UniProt Q99572). Description: P2X7 antagonism in human PBMCs (IL-1β release after LPS + Bz-ATP, ELISA). As to conditions: human PBMCs; for PBMC 1 μM (% control): test compound 1 μM. Background: In an ELISA, binding on a coated surface is turned into a signal by an enzyme label.
Test [2] addresses T1, human P2X7. Description: Ca2+ flux (FLIPR) in 1321N1 cells expressing recombinant human P2X7. (In general: Calcium flux is commonly read through the fluorescence of an indicator in the cells.)
Protocol: P2X7 Antagonism in Recombinant Human P2X7 Cells or Recombinant Rat P2X7 Cells: (a) Ca^2+ Flux and (b) Radioligand Binding
1321N1 cells expressing the recombinant human or rat P2X7 channel was cultured in HyQ DME/(HyClone/Dulbecco's Modified Eagle Medium) high glucose supplemented with 10% Fetal Bovine Serum (FBS) and appropriate selection marker. Cells were seeded at a density of 25000 cells/well (96-well clear bottom black walled plates) in 100 μl volume/well. On the day of the experiment, cell plates were washed with assay buffer, containing (in mM): 130 NaCl, 2 KCl, 1 CaCl2, 1 MgCl2, 10 HEPES, 5 glucose; pH 7.40 and 300 mOs. After the wash, cells were loaded with the Calcium-4 dye (Molecular Device) and incubated in the dark for 60 minutes. Test compounds were prepared at 250× the test concentration in neat DMSO. Intermediate 96-well compound plates were prepared by transferring 1.2 μL of the compound into 300 μL of assay buffer. A further 3× dilution occurred when transferring 50 μL/well of the compound plate to 100 μL/well in the cell plate. Cells were incubated with test compounds and dye for 30 minutes. […] The fluorescence change was measured 180 seconds after adding the agonist.
The target in another test is rat P2X7 (Rattus norvegicus (Rat), UniProt Q64663). In words: Ca2+ flux (FLIPR) in 1321N1 cells expressing recombinant rat P2X7.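 Also: Calcium-4 dye fluorescence change read 180 s after agonist addition, with cells preincubated 30 min with compound and dye in 96-well plates.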
The mark [3] stands for this setting: 1321N1 cells, recombinant human P2X7, 250 μM BzATP.
Setting [4] is: 1321N1 cells, recombinant rat P2X7, 250 μM BzATP.
The mark [5] stands for this setting: 10 μM test compound, LPS + Bz-ATP.
The mark [6] stands for this setting: Ca2+ flux, 250 μM BzATP, human P2X7 1321N1 cells.
Where [7] appears, read: Ca2+ flux, 250 μM BzATP, rat P2X7 1321N1 cells.

SMILES strings stand for the structures.

Chain of rat P2X7 (Q64663 whole entry): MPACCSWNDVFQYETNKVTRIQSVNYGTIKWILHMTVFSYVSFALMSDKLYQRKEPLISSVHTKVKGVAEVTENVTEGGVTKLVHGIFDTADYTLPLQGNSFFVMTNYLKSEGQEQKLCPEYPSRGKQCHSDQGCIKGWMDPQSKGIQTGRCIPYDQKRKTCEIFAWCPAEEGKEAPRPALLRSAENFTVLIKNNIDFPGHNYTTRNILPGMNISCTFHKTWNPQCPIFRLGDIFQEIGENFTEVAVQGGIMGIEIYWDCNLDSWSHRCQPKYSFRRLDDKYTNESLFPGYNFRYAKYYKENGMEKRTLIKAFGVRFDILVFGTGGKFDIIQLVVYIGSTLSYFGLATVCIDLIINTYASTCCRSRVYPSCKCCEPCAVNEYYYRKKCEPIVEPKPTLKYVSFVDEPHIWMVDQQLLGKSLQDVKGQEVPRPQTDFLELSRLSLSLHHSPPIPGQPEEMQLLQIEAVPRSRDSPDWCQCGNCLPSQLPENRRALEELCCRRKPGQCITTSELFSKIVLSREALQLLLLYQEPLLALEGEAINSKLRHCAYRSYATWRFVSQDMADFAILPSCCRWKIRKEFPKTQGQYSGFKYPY
T1 sequence (Q99572 whole entry): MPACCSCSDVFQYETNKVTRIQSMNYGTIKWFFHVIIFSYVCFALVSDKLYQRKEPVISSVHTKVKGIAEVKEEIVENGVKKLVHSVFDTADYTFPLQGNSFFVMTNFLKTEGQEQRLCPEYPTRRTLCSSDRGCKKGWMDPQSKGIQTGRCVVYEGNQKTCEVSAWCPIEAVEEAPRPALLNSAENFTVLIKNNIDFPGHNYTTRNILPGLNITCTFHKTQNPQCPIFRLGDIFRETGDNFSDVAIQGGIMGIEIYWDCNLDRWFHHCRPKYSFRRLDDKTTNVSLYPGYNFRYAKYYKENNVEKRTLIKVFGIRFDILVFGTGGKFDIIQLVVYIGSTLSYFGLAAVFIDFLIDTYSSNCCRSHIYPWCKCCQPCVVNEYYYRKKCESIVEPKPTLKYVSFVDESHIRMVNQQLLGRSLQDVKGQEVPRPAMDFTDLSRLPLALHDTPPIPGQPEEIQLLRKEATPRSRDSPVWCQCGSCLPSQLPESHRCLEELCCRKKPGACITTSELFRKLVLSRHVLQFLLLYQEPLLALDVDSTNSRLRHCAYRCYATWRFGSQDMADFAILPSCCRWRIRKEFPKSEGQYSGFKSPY

Turning to `O=C(c1cccc(C(F)(F)F)c1F)N1CCc2c(nnn2-c2ncccn2)C1` [Example 66, 5-{[2-Fluoro-3-(trifluoromethyl)phenyl]carbonyl}-1-pyrimidin-2-yl-4,5,6,7-tetrahydro-1H-[1,2,3]triazolo[4,5-c]pyridine], at human P2X7 [1] (test compound 10 μM), the “PBMC 10 μM (% control)” value is on record as 2.7 % control. In addition, the IC50 on human P2X7 [2] (setting [3]) amounted to 22.4 nM; on rat P2X7 (setting [4]), 258 nM.

For `C[C@H]1Cc2c(nnn2-c2cc[nH]n2)CN1C(=O)c1ccnc(C(F)(F)F)c1Cl` (single isomer, unassigned) [Example 422, (S*)-(3-chloro-2-(trifluoromethyl)pyridin-4-yl)(6-methyl-1-(1H-pyrazol-3-yl)-6,7-dihydro-1H-[1,2,3]triazolo[4,5-c]pyridin-5(4H)-yl)methanone], at human P2X7 [1] (setting [5]), the “PBMC 10 μM (% control)” value was −9.6 % control. In addition, the IC50 at human P2X7 [2] (setting [6]) is 14.4 nM; at rat P2X7 (setting [7]) it was 3.1 nM.

`CCOC(=O)C1c2ncn(-c3ccccc3)c2CCN1C(=O)c1cccc(C(F)(F)F)c1Cl` (stereo not drawn) [Example 26, Ethyl 5-(2-chloro-3-(trifluoromethyl)benzoyl)-1-phenyl-4,5,6,7-tetrahydro-1H-imidazo[4,5-c]pyridine-4-carboxylate]: at human P2X7 [1], the “PBMC 1 μM (% control)” value stood at 14.0 % control. The IC50 on human P2X7 [2] (setting [3]) amounted to 7.7 nM; at rat P2X7 (setting [4]), 54.9 nM.

With `O=C(c1cccc(C(F)(F)F)c1Cl)N1CCc2c(nnn2-c2cc(F)ccn2)C1` [Example 131, (2-Chloro-3-(trifluoromethyl)phenyl)(1-(4-fluoropyridin-2-yl)-6,7-dihydro-1H-[1,2,3]triazolo[4,5-c]pyridin-5(4H)-yl)methanone], the “PBMC 10 μM (% control)” value on human P2X7 [1] (test compound 10 μM) was found to be 8.3 % control. In addition, the concentration for half-maximal inhibition (IC50) was 2.1 nM at human P2X7 [2] (setting [3]) and 30.4 nM on rat P2X7 (setting [4]).

Turning to `Cc1cc(-n2nnc3c2CCN(C(=O)c2ccnc(C(F)(F)F)c2Cl)[C@H]3C)ncc1F` (single isomer, unassigned) [Example 372, (S*)-(3-chloro-2-(trifluoromethyl)pyridin-4-yl)(1-(5-fluoro-4-methylpyridin-2-yl)-4-methyl-6,7-dihydro-1H-[1,2,3]triazolo[4,5-c]pyridin-5(4H)-yl)methanone], the “PBMC 10 μM (% control)” value at human P2X7 [1] (test compound 10 μM) was 1.3 % control. For the same molecule, the figures for the IC50 on human P2X7 [2] (setting [3]) and at rat P2X7 (setting [4]) were 1630 nM and 8730 nM, respectively.

Turning to `Cc1nccc(-n2nnc3c2CCN(C(=O)c2ccnc(C(F)(F)F)c2Cl)C3C)n1` (stereo not drawn) [Example 399, (3-chloro-2-(trifluoromethyl)pyridin-4-yl)(4-methyl-1-(2-methylpyrimidin-4-yl)-6,7-dihydro-1H-[1,2,3]triazolo[4,5-c]pyridin-5(4H)-yl)methanone], the “PBMC 10 μM (% control)” value at human P2X7 [1] (test compound 10 μM) came to 1.1 % control. In addition, the IC50 on human P2X7 [2] (setting [3]) was 1720 nM; at rat P2X7 (setting [4]), > 10000 nM.

As for `C[C@H]1Cc2c(nnn2-c2cc[nH]n2)CN1C(=O)c1ccnc(C(F)(F)F)c1F` (single isomer, unassigned) [Example 424, (S*)-(3-fluoro-2-(trifluoromethyl)pyridin-4-yl)(6-methyl-1-(1H-pyrazol-3-yl)-6,7-dihydro-1H-[1,2,3]triazolo[4,5-c]pyridin-5(4H)-yl)methanone], on human P2X7 [1] (setting [5]), the “PBMC 10 μM (% control)” value is given as −11.2 % control. For the same molecule, the results for the IC50 on human P2X7 [2] (setting [6]) and on rat P2X7 (setting [7]) were 14 nM and 4.6 nM, respectively.

For the molecule `CCn1ccc(-n2nnc3c2CCN(C(=O)c2ccnc(C(F)(F)F)c2F)[C@H]3C)n1` [Example 409, (S)-(1-(1-ethyl-1H-pyrazol-3-yl)-4-methyl-6,7-dihydro-1H-[1,2,3]triazolo[4,5-c]pyridin-5(4H)-yl)(3-fluoro-2-(trifluoromethyl)pyridin-4-yl)methanone], the “PBMC 10 μM (% control)” value at human P2X7 [1] (setting [5]) amounted to 0.5 % control. The IC50 worked out at 28.9 nM on human P2X7 [2] (setting [6]) and 18.4 nM on rat P2X7 (setting [7]).

For the molecule `Cc1c(C(=O)N2Cc3nnn(-c4ccn[nH]4)c3C[C@@H]2C)cccc1C(F)(F)F` (single isomer, unassigned) [Example 347, (S*)-(6-methyl-1-(1H-pyrazol-3-yl)-6,7-dihydro-1H-[1,2,3]triazolo[4,5-c]pyridin-5(4H)-yl)(2-methyl-3-(trifluoromethyl)phenyl)methanone], the “PBMC 10 μM (% control)” value on human P2X7 [1] (test compound 10 μM) is given as 2.0 % control. The IC50 at human P2X7 [2] (setting [3]) was 1200 nM; at rat P2X7 (setting [4]), 324 nM.

As for `CCn1ccc(-n2nnc3c2CCN(C(=O)c2cccc(C(F)(F)F)c2Cl)[C@H]3C)n1` [Example 405, (S)-(2-chloro-3-(trifluoromethyl)phenyl)(1-(1-ethyl-1H-pyrazol-3-yl)-4-methyl-6,7-dihydro-1H-[1,2,3]triazolo[4,5-c]pyridin-5(4H)-yl)methanone], the “PBMC 10 μM (% control)” value on human P2X7 [1] (setting [5]) is −0.4 % control. In addition, the IC50 was 1600 nM on human P2X7 [2] (setting [6]) and 2300 nM at rat P2X7 (setting [7]).

Turning to `CC(C)n1ccc(-n2nnc3c2C[C@H](C)N(C(=O)c2cccc(C(F)(F)F)c2F)C3)n1` [Example 414, (S)-(2-fluoro-3-(trifluoromethyl)phenyl)(1-(1-isopropyl-1H-pyrazol-3-yl)-6-methyl-6,7-dihydro-1H-[1,2,3]triazolo[4,5-c]pyridin-5(4H)-yl)methanone], the “PBMC 10 μM (% control)” value at human P2X7 [1] (setting [5]) turned out to be 22.4 % control. In addition, the results for the IC50 on human P2X7 [2] (setting [6]) and at rat P2X7 (setting [7]) were > 10000 nM and 36600 nM, respectively.

`Cc1nccc(-n2nnc3c2CCN(C(=O)c2cccc(C(F)(F)F)c2Cl)C3C)n1` (stereo not drawn) [Example 398, (2-chloro-3-(trifluoromethyl)phenyl)(4-methyl-1-(2-methylpyrimidin-4-yl)-6,7-dihydro-1H-[1,2,3]triazolo[4,5-c]pyridin-5(4H)-yl)methanone]: the “PBMC 10 μM (% control)” value at human P2X7 [1] (test compound 10 μM) stood at 0.2 % control. Also, the results for the half-maximal inhibitory concentration (IC50) on human P2X7 [2] (setting [3]) and at rat P2X7 (setting [4]) were 538 nM and > 10000 nM, respectively.

On to `O=C(c1cccc(C(F)(F)F)c1Cl)N1CCc2c(ncn2-c2ccccc2)C1` [Example 2, (2-Chloro-3-(trifluoromethyl)phenyl)(1-phenyl-6,7-dihydro-1H-imidazo[4,5-c]pyridin-5(4H)-yl)methanone], for which the “PBMC 1 μM (% control)” value on human P2X7 [1] is on record as 7.9 % control. Besides, the IC50 at human P2X7 [2] (setting [3]) stood at 12.1 nM; at rat P2X7 (setting [4]) it was 2910 nM.

`C[C@H]1Cc2c(nnn2-c2ncc(F)cn2)CN1C(=O)c1cccc(OC(F)(F)F)c1F` [Example 427, (S)-(2-fluoro-3-(trifluoromethoxy)phenyl)(1-(5-fluoropyrimidin-2-yl)-6-methyl-6,7-dihydro-1H-[1,2,3]triazolo[4,5-c]pyridin-5(4H)-yl)methanone]: at human P2X7 [1] (setting [5]), the “PBMC 10 μM (% control)” value is reported as −0.8 % control. Also, the results for the IC50 on human P2X7 [2] (setting [6]) and at rat P2X7 (setting [7]) were 262 nM and 8280 nM, respectively.

For the molecule `Cc1cc(-n2nnc3c2CCN(C(=O)c2cc(C(F)(F)F)ccc2Cl)C3C)ncc1F` (stereo not drawn) [Example 352, (2-chloro-5-(trifluoromethyl)phenyl)(1-(5-fluoro-4-methylpyridin-2-yl)-4-methyl-6,7-dihydro-1H-[1,2,3]triazolo[4,5-c]pyridin-5(4H)-yl)methanone], the “PBMC 10 μM (% control)” value at human P2X7 [1] (test compound 10 μM) came to 98.2 % control. Moreover, the IC50 on human P2X7 [2] (setting [3]) and at rat P2X7 (setting [4]) was > 10000 nM throughout.

As for `CC(C)n1ccc(-n2nnc3c2CCN(C(=O)c2ccnc(C(F)(F)F)c2F)[C@H]3C)n1` [Example 419, (S)-(3-fluoro-2-(trifluoromethyl)pyridin-4-yl)(1-(1-isopropyl-1H-pyrazol-3-yl)-4-methyl-6,7-dihydro-1H-[1,2,3]triazolo[4,5-c]pyridin-5(4H)-yl)methanone], at human P2X7 [1] (setting [5]), the “PBMC 10 μM (% control)” value is listed as −0.4 % control. In addition, the IC50 at human P2X7 [2] (setting [6]) was 92 nM; at rat P2X7 (setting [7]), 15.7 nM.

As a reminder, the IC50 is the concentration that inhibits the measured activity by half.
